# Experimental data: ChEMBL document CHEMBL1147290, “Toxicants from mangrove plants, V. Isolation of the piscicide, 2-hydroxy-5-methoxy-3-undecyl-1,4 benzoquinone (5-O-methylembelin) from Aegiceras corniculatum” (J Nat Prod, 1989)
# Experiments:
# [1] = system: Globisporangium ultimum; assay: Antifungal activity against Pythium ultimum at 1 mg; assay type: functional; conditions: read-out: IZ
# [2] = system: Oreochromis niloticus; assay: Toxicity in Tilapia nilotica at 1 ppm within 75 mins; assay type: organism-based; conditions: in vivo, 1.25 h
compound,measurement,setting,value
CCCCCCCCCCCC1=C(O)C(=O)C=C(OC)C1=O [5-O-METHYLEMBELIN],zone of inhibition at 1000 µg/disc,[1],8 mm
same,Activity,[2],Toxic
